Legend:
Assay in all cases: biochemical
Parameters in all cases: DiscoverX kinase panel, active-site competition binding (KINOMEscan type), percent of control at one concentration
Conditions in all cases: competition binding, percent of control
TXK = TXK (Homo sapiens, UniProt P42681)
VRK2 = VRK2 (Homo sapiens, UniProt Q86Y07)
FGFR3 = FGFR3 (Homo sapiens, UniProt P22607)
PIM3 = PIM3 (Homo sapiens, UniProt Q86V86)
BIKE = target: T1, BIKE (Homo sapiens, UniProt Q9NSY1)
T1 construct: gene BMP2K

MELK = MELK (Homo sapiens, UniProt Q14680)
[1] = target: T2, JAK1(JH1domain-catalytic) (Homo sapiens, UniProt P23458)
T2 construct: JH1domain-catalytic

CAMK2B = CAMK2B (Homo sapiens, UniProt Q13554)
FGFR4 = FGFR4 (Homo sapiens, UniProt P22455)
[2] = target: T3, ABL1(Q252H)-nonphosphorylated (Homo sapiens, UniProt P00519, Q252H)
T3 construct: nonphosphorylated

TSSK1B = TSSK1B (Homo sapiens, UniProt Q9BXA7)
CDC2L2 = target: T4, CDC2L2 (Homo sapiens, UniProt Q9UQ88)
T4 construct: gene CDK11A

MAPKAPK5 = MAPKAPK5 (Homo sapiens, UniProt Q8IW41)
TGFBR2 = TGFBR2 (Homo sapiens, UniProt P37173)
HIPK3 = HIPK3 (Homo sapiens, UniProt Q9H422)
MARK4 = MARK4 (Homo sapiens, UniProt Q96L34)
RET(V804L) = RET(V804L) (Homo sapiens, UniProt P07949, V804L)
[3] = target: T5, RSK4(Kin.Dom.1-N-terminal) (Homo sapiens, UniProt Q9UK32)
T5 construct: gene RPS6KA6; Kin.Dom.1-N-terminal

TRKC = target: T6, TRKC (Homo sapiens, UniProt Q16288)
T6 construct: gene NTRK3

JNK1 = target: T7, JNK1 (Homo sapiens, UniProt P45983)
T7 construct: gene MAPK8

MEK2 = target: T8, MEK2 (Homo sapiens, UniProt P36507)
T8 construct: gene MAP2K2
T8 sequence (P36507 whole entry): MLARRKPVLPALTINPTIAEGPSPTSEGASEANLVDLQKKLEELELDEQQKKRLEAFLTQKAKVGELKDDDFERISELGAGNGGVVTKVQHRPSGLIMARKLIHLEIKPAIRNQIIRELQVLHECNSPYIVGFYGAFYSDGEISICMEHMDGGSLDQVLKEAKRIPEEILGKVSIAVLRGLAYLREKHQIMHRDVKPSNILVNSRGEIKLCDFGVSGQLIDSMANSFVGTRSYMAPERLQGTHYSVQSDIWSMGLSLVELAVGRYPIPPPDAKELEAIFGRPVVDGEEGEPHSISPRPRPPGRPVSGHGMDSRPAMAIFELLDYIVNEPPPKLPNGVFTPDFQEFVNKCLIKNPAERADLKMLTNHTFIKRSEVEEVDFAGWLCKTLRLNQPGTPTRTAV

Chain of TGFBR2 (P37173 whole entry): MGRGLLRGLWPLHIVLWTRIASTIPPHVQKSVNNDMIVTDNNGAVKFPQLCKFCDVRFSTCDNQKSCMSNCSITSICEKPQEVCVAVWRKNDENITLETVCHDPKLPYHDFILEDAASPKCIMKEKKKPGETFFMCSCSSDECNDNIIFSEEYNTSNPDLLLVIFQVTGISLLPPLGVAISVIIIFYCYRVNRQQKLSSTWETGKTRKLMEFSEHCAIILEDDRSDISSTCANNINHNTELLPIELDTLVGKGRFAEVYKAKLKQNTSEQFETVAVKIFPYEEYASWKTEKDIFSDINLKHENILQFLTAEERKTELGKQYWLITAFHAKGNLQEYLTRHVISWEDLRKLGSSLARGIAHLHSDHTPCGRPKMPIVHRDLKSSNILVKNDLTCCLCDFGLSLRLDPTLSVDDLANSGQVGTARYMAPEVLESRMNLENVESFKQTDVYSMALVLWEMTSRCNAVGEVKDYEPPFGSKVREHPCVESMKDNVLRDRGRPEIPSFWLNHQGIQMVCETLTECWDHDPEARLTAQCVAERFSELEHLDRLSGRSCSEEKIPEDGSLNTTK
T7 sequence (P45983 whole entry): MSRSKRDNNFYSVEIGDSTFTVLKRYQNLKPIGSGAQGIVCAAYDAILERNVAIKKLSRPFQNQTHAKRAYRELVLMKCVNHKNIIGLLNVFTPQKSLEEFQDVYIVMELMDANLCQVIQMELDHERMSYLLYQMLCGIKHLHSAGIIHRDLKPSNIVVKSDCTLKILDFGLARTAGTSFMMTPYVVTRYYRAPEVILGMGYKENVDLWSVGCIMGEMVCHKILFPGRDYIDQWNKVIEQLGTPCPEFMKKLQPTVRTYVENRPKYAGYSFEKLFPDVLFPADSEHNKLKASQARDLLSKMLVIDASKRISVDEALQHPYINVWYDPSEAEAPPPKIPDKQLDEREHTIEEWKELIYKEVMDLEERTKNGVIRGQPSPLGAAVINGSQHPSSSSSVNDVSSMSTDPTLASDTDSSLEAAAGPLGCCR
T5 sequence (Q9UK32 whole entry): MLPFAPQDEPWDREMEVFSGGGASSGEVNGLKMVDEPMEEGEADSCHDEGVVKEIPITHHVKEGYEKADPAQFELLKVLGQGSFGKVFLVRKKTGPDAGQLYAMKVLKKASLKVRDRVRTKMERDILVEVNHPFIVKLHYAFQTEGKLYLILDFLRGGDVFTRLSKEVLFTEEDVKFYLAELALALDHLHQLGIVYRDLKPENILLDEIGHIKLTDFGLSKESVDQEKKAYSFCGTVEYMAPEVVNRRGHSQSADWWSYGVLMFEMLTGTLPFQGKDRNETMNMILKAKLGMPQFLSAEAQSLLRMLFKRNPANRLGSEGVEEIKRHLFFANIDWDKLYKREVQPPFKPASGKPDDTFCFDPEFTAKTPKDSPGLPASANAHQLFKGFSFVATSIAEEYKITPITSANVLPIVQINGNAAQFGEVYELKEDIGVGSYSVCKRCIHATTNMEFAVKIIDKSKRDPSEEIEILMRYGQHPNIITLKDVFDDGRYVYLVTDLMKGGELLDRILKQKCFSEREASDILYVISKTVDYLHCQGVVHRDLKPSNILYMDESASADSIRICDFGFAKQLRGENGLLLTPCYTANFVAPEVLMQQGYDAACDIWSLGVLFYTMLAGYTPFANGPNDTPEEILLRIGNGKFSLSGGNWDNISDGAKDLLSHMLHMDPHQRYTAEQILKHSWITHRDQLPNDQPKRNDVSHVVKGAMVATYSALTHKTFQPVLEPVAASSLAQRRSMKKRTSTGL
Chain of TSSK1B (Q9BXA7 whole entry): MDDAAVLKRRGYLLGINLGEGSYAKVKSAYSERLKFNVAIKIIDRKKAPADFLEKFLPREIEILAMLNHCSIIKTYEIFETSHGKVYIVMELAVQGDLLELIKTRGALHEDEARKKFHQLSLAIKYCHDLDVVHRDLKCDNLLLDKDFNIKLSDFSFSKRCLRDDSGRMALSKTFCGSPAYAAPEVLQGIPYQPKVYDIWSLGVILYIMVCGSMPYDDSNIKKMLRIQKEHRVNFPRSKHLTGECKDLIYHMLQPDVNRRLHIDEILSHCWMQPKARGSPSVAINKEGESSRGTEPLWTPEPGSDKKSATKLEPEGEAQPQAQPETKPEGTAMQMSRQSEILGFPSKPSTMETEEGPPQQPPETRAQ
Chain of MARK4 (Q96L34 whole entry): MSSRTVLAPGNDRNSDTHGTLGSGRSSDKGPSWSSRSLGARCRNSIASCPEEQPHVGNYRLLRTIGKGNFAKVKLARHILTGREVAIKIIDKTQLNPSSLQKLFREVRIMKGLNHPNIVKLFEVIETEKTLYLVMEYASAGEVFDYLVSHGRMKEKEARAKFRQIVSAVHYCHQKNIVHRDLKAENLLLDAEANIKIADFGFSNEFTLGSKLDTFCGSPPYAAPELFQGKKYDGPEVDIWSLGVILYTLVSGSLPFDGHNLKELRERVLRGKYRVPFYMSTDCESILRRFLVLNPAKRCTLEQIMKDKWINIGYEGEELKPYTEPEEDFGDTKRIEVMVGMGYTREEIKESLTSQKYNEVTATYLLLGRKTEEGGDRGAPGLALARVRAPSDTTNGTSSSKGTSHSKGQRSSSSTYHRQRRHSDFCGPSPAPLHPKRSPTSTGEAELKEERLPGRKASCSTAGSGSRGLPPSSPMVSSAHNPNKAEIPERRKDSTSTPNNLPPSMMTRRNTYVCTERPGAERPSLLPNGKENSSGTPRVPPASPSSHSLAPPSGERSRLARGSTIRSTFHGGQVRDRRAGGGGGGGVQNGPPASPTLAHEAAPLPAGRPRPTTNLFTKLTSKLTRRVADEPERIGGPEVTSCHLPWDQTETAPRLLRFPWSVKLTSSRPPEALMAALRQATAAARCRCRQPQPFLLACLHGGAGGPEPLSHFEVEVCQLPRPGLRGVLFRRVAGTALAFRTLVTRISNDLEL
Chain of FGFR3 (P22607 whole entry): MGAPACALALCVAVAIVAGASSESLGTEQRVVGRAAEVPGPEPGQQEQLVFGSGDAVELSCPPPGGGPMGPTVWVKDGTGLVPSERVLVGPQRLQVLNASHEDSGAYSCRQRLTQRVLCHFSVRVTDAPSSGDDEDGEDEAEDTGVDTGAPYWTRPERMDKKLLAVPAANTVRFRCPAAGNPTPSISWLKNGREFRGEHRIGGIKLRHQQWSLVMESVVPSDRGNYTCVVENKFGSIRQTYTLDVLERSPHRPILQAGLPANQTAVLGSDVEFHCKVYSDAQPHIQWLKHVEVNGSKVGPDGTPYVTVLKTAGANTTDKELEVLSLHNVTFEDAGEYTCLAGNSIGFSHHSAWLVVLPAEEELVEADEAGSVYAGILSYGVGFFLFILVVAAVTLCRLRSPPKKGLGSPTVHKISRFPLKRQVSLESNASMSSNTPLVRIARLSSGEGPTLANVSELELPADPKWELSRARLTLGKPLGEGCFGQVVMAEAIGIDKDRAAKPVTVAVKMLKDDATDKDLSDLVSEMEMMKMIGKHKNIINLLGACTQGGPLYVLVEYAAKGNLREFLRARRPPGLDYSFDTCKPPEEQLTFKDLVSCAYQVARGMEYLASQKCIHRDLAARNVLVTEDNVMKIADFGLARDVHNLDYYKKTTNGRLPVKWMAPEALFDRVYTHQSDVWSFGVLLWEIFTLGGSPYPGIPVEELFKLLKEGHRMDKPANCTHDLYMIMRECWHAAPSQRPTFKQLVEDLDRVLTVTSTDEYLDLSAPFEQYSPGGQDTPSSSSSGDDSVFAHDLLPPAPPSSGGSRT
Chain of TXK (P42681 whole entry): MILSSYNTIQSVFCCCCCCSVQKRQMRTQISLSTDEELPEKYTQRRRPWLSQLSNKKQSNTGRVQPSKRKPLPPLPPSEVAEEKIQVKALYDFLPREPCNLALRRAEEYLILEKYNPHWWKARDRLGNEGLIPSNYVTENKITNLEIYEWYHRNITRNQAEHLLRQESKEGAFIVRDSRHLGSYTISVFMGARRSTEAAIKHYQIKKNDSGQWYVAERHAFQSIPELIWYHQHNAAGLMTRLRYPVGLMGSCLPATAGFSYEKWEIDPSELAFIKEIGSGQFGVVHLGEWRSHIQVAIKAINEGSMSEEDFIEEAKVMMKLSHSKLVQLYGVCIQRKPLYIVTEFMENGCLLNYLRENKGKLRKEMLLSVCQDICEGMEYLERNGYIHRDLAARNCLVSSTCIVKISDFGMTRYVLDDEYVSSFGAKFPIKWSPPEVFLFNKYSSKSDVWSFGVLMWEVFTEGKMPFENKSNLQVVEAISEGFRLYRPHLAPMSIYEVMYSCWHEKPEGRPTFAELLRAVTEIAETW

For `COc1cc2c(cn1)N(C)C(=O)[C@@H](NC(=O)c1nc3n(n1)[C@H](c1ccccc1)CC3)CC2` [GNE684, (S)-N-((S)-7-methoxy-1-methyl-2-oxo-2,3,4,5-tetrahydro-1H-pyrido[3,4-b]azepin-3-yl)-5-phenyl-6,7-dihydro-5H-pyrrolo[1,2-b][1,2,4]triazole-2-carboxamide], the remaining binding at 10 µM (TXK) was 100%, the remaining binding at 10 µM (VRK2) was 85% and the remaining binding at 10 µM (FGFR3) was 100%. The remaining binding at 10 µM (PIM3) was 100%, the remaining binding at 10 µM (BIKE) was 100% and the remaining binding at 10 µM (MELK) was 93%. It also gave a remaining binding at 10 µM [1] of 100%, a remaining binding at 10 µM (CAMK2B) of 76% and a remaining binding at 10 µM (FGFR4) of 88%. The remaining binding at 10 µM [2] was 68%, the remaining binding at 10 µM (TSSK1B) was 95% and the remaining binding at 10 µM (CDC2L2) was 98%. For the same molecule, the remaining binding at 10 µM (MAPKAPK5) was 100%, the remaining binding at 10 µM (TGFBR2) was 94% and the remaining binding at 10 µM (HIPK3) was 100%. For the same molecule, the remaining binding at 10 µM (MARK4) was 60%, the remaining binding at 10 µM (RET(V804L)) was 91% and the remaining binding at 10 µM [3] was 100%. For the same molecule, the remaining binding at 10 µM (TRKC) was 69%, the remaining binding at 10 µM (JNK1) was 97% and the remaining binding at 10 µM (MEK2) was 80%.
